Patent publication US20120015812A1, “Mixtures of strobilurins with triexapac-ethyl” (BASF SE, priority 2003, published 2012)

Tests used:
[1] = tested on: soybean plants (cv. “Delta Pine”); experiment: Reduction of ethylene formation in leaves of soybean plants (gas chromatography); format: in vivo; details: for Ethylene Evolution per Unit Leaf Weight [% of Control]: greenhouse, leaf spray 750 l/ha, 24 hours after treatment, shoots wilted 10 min, incubated 60 min, g/ha of ai: Co++ 40, pyraclostrobin 100, salicylic acid 500
Protocol: Soybean plants were raised under greenhouse conditions with two plants each per 12-cm pot. Spray treatments of the leaves were carried out with a volume of liquid of 750 l/ha when the plants had developed one to two trifoliate leaves. 24 hours after treatment, the shoots of the soybean plants were dissected above the cotyledons and wilted for 10 minutes under laboratory conditions. Shoots representing a distinct treatment were incubated for 60 minutes under laboratory conditions in a 100-ml Erlenmeyer flask sealed with a rubber cap. Thereafter, gas samples were taken and analyzed for their ethylene content by gas chromatography.
Reduction of ethylene formation in leaves of soybean plants (cv. “Delta Pine”)

[2] = tested on: soybeans (cv. “Embrapa 48”); experiment: Yield improvement of soybeans naturally infected with Phakopsora pachyrhizi; format: in vivo, soybean; details: as in Example 3; pyraclostrobin 112.5 g/ha, Co++ 29 g/ha, alone or combined
Description: Seeds of soybean cv. “Embrapa 48” were planted and grown under standard conditions with adequate supply of water and nutrients. Infection with Phakopsora pachyrhizi occurred naturally. The active ingredients have been applied twice, 62 and 68 days after seeding.
Yield improvement of soybeans (cv. “Embrapa 48)

[3] = tested on: soybeans of the cultivar RS10; experiment: Spray treatment of rust-preinfected soybeans: leaf drop and yield; format: in vivo, soybean; details: soybeans cv. RS10, 8-12% preinfection by Phakopsora pachyrhizi, 8 days after treatment; pyraclostrobin 133 g/ha alone or with 80 g/ha CoCl2×6 H2O and 100 g/ha prohexadione-Ca
Protocol: (§1) During fruit formation, soybeans of the cultivar RS10 with 8-12% preinfection by Phakopsora pachyrhizi were treated by spray application using customary sprayers with a mixture of 133 g/ha of pyraclostrobin, 80 g/ha of CoCl2×6 H2O(=20 g/ha of cobalt) and 100 g/ha of prohexadione-Ca. Entirely untreated plants and plants treated with 133 g/ha of pyraclostrobin were used for comparison.

Phakopsora pachyrhizi = experiment: Spray treatment of soybeans preinfected with Phakopsora pachyrhizi: infection by pathogen; format: in vivo; details: soybeans cv. RS10, 8-12% preinfection, spray application, 8 days after treatment; 133 g/ha pyraclostrobin
Protocol: as §1

Row | SMILES | Ethylene Evolution per Unit Leaf Weight [% of Control] [1] | seed yield improvement above the control [2] | leaf drop [3] | ethylene formation in drought-stressed soybean leaves ([1]; summary in words of Example 2) | infection by pathogen (Phakopsora pachyrhizi)
1 | O.O.O.O.O.O.[Cl-].[Cl-].[Co+2] [CoCl2 × 6 H2O, CoCl2×6 H2O] | 41 % of Control | – | – | – | –
2 | [Co+2] [Co^++] | – | 22% | – | – | –
3 | O=C(O)c1ccccc1O [Salicylic Acid] | 97 % of Control | – | – | – | –
4 | COC(=O)N(OC)c1ccccc1COc1ccn(-c2ccc(Cl)cc2)n1 [pyraclostrobin, methyl N-{2-[1-(4-chlorophenyl)-1H-pyrazol-3-yloxymethyl]phenyl}(N-methoxy)carbamate] | – | 24% | considerable leaf drop | inhibits ethylene formation | less infection by pathogen than the entirely untreated plants
